Source: PubChem BioAssay AID248 (DTP/NCI, 2004)
Values joined by “and” are separate entries in the source; they are usually repeats but may differ in a detail not shown here. Equal values may be shown once. Inconclusive results and toxic doses are left out.

System: L1210 leukemia ip in BDF1 mice, survival T/C
Assay: NCI In Vivo Anticancer Drug Screen. Data for tumor model L1210 Leukemia (intraperitoneal) in B6D2F1 (BDF1) mice
Details: endpoint: mean survival time, higher = longer survival
In short: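 Ratio derived from survival: compound-dosed mice over vehicle-dosed mice, all bearing a transplantable tumor.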

[1] = dose: 100.0 mg/kg/injection, schedule: Q04DX003 (ip), vehicle: Klucel (hydroxypropylcellulose) (HPC)
[2] = dose: 200.0 mg/kg/injection, schedule: Q04DX003 (ip), vehicle: Klucel (hydroxypropylcellulose) (HPC)
[3] = dose: 400.0 mg/kg/injection, schedule: Q04DX003 (ip), vehicle: Klucel (hydroxypropylcellulose) (HPC)
[4] = dose: 100.0 mg/kg/injection, schedule: Q04DX003 (ip), vehicle: saline
[5] = dose: 200.0 mg/kg/injection, schedule: Q04DX003 (ip), vehicle: saline
[6] = dose: 100.0 mg/kg/injection, schedule: Q01DX009 (ip), vehicle: Klucel (hydroxypropylcellulose) (HPC)

With `COC(=O)CN(C(=S)c1ccccc1)c1ccccc1` the T/C [1] was 104 % of control, the T/C [2] was 96 % of control and the T/C [3] was 94 % of control.
With `OCC1C=CCC=C1` the T/C [4] was 100 % of control, the T/C [5] was 98 % of control and the T/C (dose: 400.0 mg/kg/injection, schedule: Q04DX003 (ip), vehicle: saline) was 93 % of control.
`COP(=O)(OC)C(OC(=O)C(C)(C)C)=C(C)C` was tested, and the T/C (dose: 100.0 mg/kg/injection, schedule: Q04DX003 (ip), vehicle: saline with Tween-80) was 98 % of control, the T/C (dose: 200.0 mg/kg/injection, schedule: Q04DX003 (ip), vehicle: saline with Tween-80) was 110 % of control and the T/C (dose: 400.0 mg/kg/injection, schedule: Q04DX003 (ip), vehicle: saline with Tween-80) was 93 % of control.
With `CC(C)CC1NC(=O)C(C(C)C)NC(=O)CC(C)COC(=O)C(CC(C)C)N(C)C(=O)C(C(C)C)NC(=O)C(C(C)C)OC1=O` (stereo not drawn) the T/C (dose: 75.0 mg/kg/injection, schedule: Q01DX001 (ip), vehicle: carboxymethylcellulose (CMC)) was 96 % of control and the T/C (dose: 150.0 mg/kg/injection, schedule: Q01DX001 (ip), vehicle: carboxymethylcellulose (CMC)) was 96 % of control.
With `CC(=O)Nc1cc(Cl)ccc1C` the T/C (dose: 25.0 mg/kg/injection, schedule: Q01DX009 (ip), vehicle: saline with Tween-80) was 93 % of control, the T/C (dose: 50.0 mg/kg/injection, schedule: Q01DX009 (ip), vehicle: saline with Tween-80) was 90 % of control and the T/C (dose: 50.0 mg/kg/injection, schedule: Q04DX003 (ip), vehicle: saline) was 95 % of control. For the same compound, the T/C (dose: 100.0 mg/kg/injection, schedule: Q01DX009 (ip), vehicle: saline with Tween-80) was 89 % of control, the T/C [4] was 97 % of control and the T/C [5] was 100 % of control.
`Cc1cnc2cccc(C)c2c1Cl` was tested, and the T/C (dose: 50.0 mg/kg/injection, schedule: Q01DX001 (ip), vehicle: saline) was 101 % of control, the T/C (dose: 100.0 mg/kg/injection, schedule: Q01DX001 (ip), vehicle: saline) was 97 % of control and the T/C (dose: 200.0 mg/kg/injection, schedule: Q01DX001 (ip), vehicle: saline) was 95 % of control.
In the case of `O=C(CC(CC(=O)c1ccccc1)c1ccccn1)c1ccccc1`, the T/C (dose: 50.0 mg/kg/injection, schedule: Q01DX001 (ip), vehicle: other) is reported as 105 % of control, the T/C (dose: 100.0 mg/kg/injection, schedule: Q01DX001 (ip), vehicle: other) is reported as 100 % of control and the T/C (dose: 200.0 mg/kg/injection, schedule: Q01DX001 (ip), vehicle: other) is reported as 96 % of control. For the same compound, the T/C (dose: 400.0 mg/kg/injection, schedule: Q01DX001 (ip), vehicle: other) was 102 % of control.
`CCN(CC)P(=O)(N1CC1C)N1CC1C` (stereo not drawn) was tested, and the T/C (dose: 4.4 mg/kg/injection, schedule: Q01DX015 (ip), vehicle: saline) was 111 % of control, the T/C (dose: 6.25 mg/kg/injection, schedule: Q01DX009 (ip), vehicle: saline) was 122 % of control and the T/C (dose: 6.6 mg/kg/injection, schedule: Q01DX015 (ip), vehicle: saline) was 105 % of control. For the same compound, the T/C (dose: 10.0 mg/kg/injection, schedule: Q01DX015 (ip), vehicle: saline) was 106 % of control, the T/C (dose: 14.0 mg/kg/injection, schedule: Q01DX009 (ip), vehicle: saline) was 112 % of control and the T/C (dose: 15.0 mg/kg/injection, schedule: Q01DX015 (ip), vehicle: saline) was 106 % of control. The T/C (dose: 33.0 mg/kg/injection, schedule: Q01DX015 (ip), vehicle: saline) was 109 % of control, the T/C (dose: 44.4 mg/kg/injection, schedule: Q01DX001 (ip), vehicle: saline) was 108 % of control and 115 % of control and the T/C (dose: 50.0 mg/kg/injection, schedule: Q01DX015 (ip), vehicle: saline) was 102 % of control. For the same compound, the T/C (dose: 66.6 mg/kg/injection, schedule: Q01DX001 (ip), vehicle: saline) was 121 % of control, the T/C (dose: 75.0 mg/kg/injection, schedule: Q01DX009 (ip), vehicle: saline) was 90 % of control and the T/C (dose: 150.0 mg/kg/injection, schedule: Q01DX001 (ip), vehicle: saline) was 157 % of control.
`CCOC(=O)CCCCCCCCCCNC(=O)NCc1ccccc1` was tested, and the T/C (dose: 100.0 mg/kg/injection, schedule: Q04DX002 (ip), vehicle: saline with Tween-80) was 90 % of control, the T/C (dose: 200.0 mg/kg/injection, schedule: Q04DX002 (ip), vehicle: saline with Tween-80) was 87 % of control and the T/C (dose: 400.0 mg/kg/injection, schedule: Q04DX002 (ip), vehicle: saline with Tween-80) was 97 % of control.
`O=C(/C=C\c1ccc(/C=C/C(=O)Nc2cccc(C3=NCCN3)c2)cc1)Nc1cccc(C2=NCCN2)c1` was tested, and the T/C (dose: 3.75 mg/kg/injection, schedule: Q01DX Z (ip), vehicle: saline) was 107 % of control, the T/C (dose: 7.5 mg/kg/injection, schedule: Q01DX Z (ip), vehicle: saline) was 120 % of control and the T/C (dose: 15.0 mg/kg/injection, schedule: Q01DX Z (ip), vehicle: saline) was 122 % of control. The T/C (dose: 30.0 mg/kg/injection, schedule: Q01DX Z (ip), vehicle: saline) was 184 % of control, the T/C (dose: 60.0 mg/kg/injection, schedule: Q01DX Z (ip), vehicle: saline) was 189 % of control and the T/C (dose: 120.0 mg/kg/injection, schedule: Q01DX Z (ip), vehicle: saline) was 182 % of control. The T/C (dose: 240.0 mg/kg/injection, schedule: Q01DX Z (ip), vehicle: saline) was 167 % of control.
For `CC(=O)OC1C=CCC2C(=O)C3=C(C(=O)c4ccccc4C3=O)C(=O)C12` (stereo not drawn), the T/C (dose: 0.25 mg/kg/injection, schedule: Q04DX003 (ip), vehicle: saline with Tween-80) was 93 % of control, the T/C (dose: 0.5 mg/kg/injection, schedule: Q04DX003 (ip), vehicle: saline with Tween-80) was 93 % of control and the T/C (dose: 1.0 mg/kg/injection, schedule: Q04DX003 (ip), vehicle: saline with Tween-80) was 89 % of control. For the same compound, the T/C (dose: 2.0 mg/kg/injection, schedule: Q04DX003 (ip), vehicle: saline with Tween-80) was 97 % of control, the T/C (dose: 4.0 mg/kg/injection, schedule: Q04DX003 (ip), vehicle: saline with Tween-80) was 107 % of control and the T/C (dose: 6.0 mg/kg/injection, schedule: Q04DX003 (ip), vehicle: saline with Tween-80) was 103 % of control. The T/C (dose: 8.0 mg/kg/injection, schedule: Q04DX003 (ip), vehicle: saline with Tween-80) was 98 % of control, the T/C (dose: 12.0 mg/kg/injection, schedule: Q04DX003 (ip), vehicle: saline with Tween-80) was 97 % of control and the T/C (dose: 16.0 mg/kg/injection, schedule: Q04DX003 (ip), vehicle: saline with Tween-80) was 98 % of control. For the same compound, the T/C (dose: 24.0 mg/kg/injection, schedule: Q04DX003 (ip), vehicle: saline with Tween-80) was 97 % of control, the T/C (dose: 32.0 mg/kg/injection, schedule: Q04DX003 (ip), vehicle: saline with Tween-80) was 104 % of control and the T/C (dose: 48.0 mg/kg/injection, schedule: Q04DX003 (ip), vehicle: saline with Tween-80) was 97 % of control. For the same compound, the T/C (dose: 64.0 mg/kg/injection, schedule: Q04DX003 (ip), vehicle: saline with Tween-80) was 100 % of control and the T/C (dose: 128.0 mg/kg/injection, schedule: Q04DX003 (ip), vehicle: saline with Tween-80) was 100 % of control.
For `CC(=O)Nc1ccc(OC(=O)Nc2cccc(Cl)c2Cl)cc1`, the T/C [6] was 102 % of control, the T/C (dose: 200.0 mg/kg/injection, schedule: Q01DX009 (ip), vehicle: Klucel (hydroxypropylcellulose) (HPC)) was 101 % of control and the T/C (dose: 400.0 mg/kg/injection, schedule: Q01DX009 (ip), vehicle: Klucel (hydroxypropylcellulose) (HPC)) was 97 % of control.
With `C[N+](C)(C)CC1(COC(=O)C(O)(c2ccccc2)c2ccccc2)CC1` the T/C (dose: 12.0 mg/kg/injection, schedule: Q04DX003 (ip), vehicle: Klucel (hydroxypropylcellulose) (HPC)) was 97 % of control, the T/C (dose: 25.0 mg/kg/injection, schedule: Q01DX001 (ip), vehicle: Klucel (hydroxypropylcellulose) (HPC)) was 93 % of control and the T/C (dose: 25.0 mg/kg/injection, schedule: Q04DX003 (ip), vehicle: Klucel (hydroxypropylcellulose) (HPC)) was 105 % of control. For the same compound, the T/C (dose: 50.0 mg/kg/injection, schedule: Q01DX001 (ip), vehicle: Klucel (hydroxypropylcellulose) (HPC)) was 100 % of control, the T/C (dose: 50.0 mg/kg/injection, schedule: Q04DX003 (ip), vehicle: Klucel (hydroxypropylcellulose) (HPC)) was 95 % of control and the T/C (dose: 100.0 mg/kg/injection, schedule: Q01DX001 (ip), vehicle: Klucel (hydroxypropylcellulose) (HPC)) was 96 % of control and 100 % of control.
With `CCCCCCCCCCCCCCCCN(C(C)C)S(=O)(=O)c1ccc(Cl)c([N+](=O)[O-])c1` the T/C (dose: 100.0 mg/kg/injection, schedule: Q01DX009 (ip), vehicle: saline sonified) was 106 % of control, the T/C [1] was 91 % of control and the T/C (dose: 200.0 mg/kg/injection, schedule: Q01DX009 (ip), vehicle: saline sonified) was 96 % of control. The T/C [2] was 94 % of control, the T/C (dose: 400.0 mg/kg/injection, schedule: Q01DX009 (ip), vehicle: saline sonified) was 89 % of control and the T/C [3] was 93 % of control.
In the case of `CN(C)c1ccc(N=Nc2ccncc2)cc1`, the T/C (dose: 25.0 mg/kg/injection, schedule: Q01DX009 (ip), vehicle: Klucel (hydroxypropylcellulose) (HPC)) is reported as 98 % of control, the T/C (dose: 50.0 mg/kg/injection, schedule: Q01DX009 (ip), vehicle: Klucel (hydroxypropylcellulose) (HPC)) is reported as 98 % of control and the T/C [6] is reported as 94 % of control.
